The values below come from US11844776B2, “Composition for treatment and/or prevention of peripheral nerve disorder” (OSAKA CITY UNIVERSITY, priority 2016, dated 2023).

The subject of experiment [1] is dorsal root ganglion neurons. The experiment can be described thus: Effect of SNJ1945 on axon elongation in mouse dorsal root ganglion neurons. Format: cell-based. Particulars: 200 μM, 24 or 48 hours, vs 1% DMSO. How it is done:
Dorsal root ganglions were aseptically extracted from postnatal mice (3, 10, or 15 days old) under a stereoscopic microscope, and tissue fragments were dispersed by gentle pipetting and then treated with 0.025% trypsin/0.0013% DNaseI (both being final concentrations) at 37° C. for 20 minutes. After centrifugation, a BME culture solution (Gibco) containing 10% equine blood serum was added, and washing was performed. After the enzyme reaction was stopped, a BME culture solution containing 0.0052% DNaseI/10% equine blood serum (both being final concentrations) was added, and pipetting was performed. […] After incubation for another 15 minutes at room temperature, the resulting aggregates were washed well and carefully embedded using glycerol for fluorescence microscope observation (Merck) so as not to break up the aggregates. […] Dorsal root ganglion neurons were also isolated from LIS1 hetero mice (3 days old) and analyzed in the same manner.
Dorsal root ganglion neurons were isolated from 3-day-old mice or 15-day-old mice, and the correlation between the presence or absence of SNJ1945 addition and axon length was analyzed. […]

In experiment [2] the test system is LIS1 protein. Nature of the experiment: Expression amount of LIS1 protein in dorsal root ganglion neurons by western blotting. Format: cell-based, mouse. Particulars: 200 μM. Here is the method: Dorsal root ganglion neurons were isolated from mice (3 days old or 15 days old) and the expression amount of LIS1 protein was analyzed in the order of time sequence from initiation of culture. Protein extraction was performed by adding 100 μl of a protein-dissolving liquid (30 mM Tris-HCl, pH 6.8, 1.5% sodium dodecyl sulfate (SDS), 0.3% bromophenol blue (BPB), 0.3% 2-mercapto-ethanol (2-ME), and 15% glycerol) per 5×10^4 dorsal root ganglion neurons and further performing ultrasonic treatment to achieve complete solubilization. After the heat treatment at 95° C. for 5 minutes, 1 μl of the obtained protein lysate was separated by 12.5% SDS-acrylamide electrophoresis and subjected to western blotting using anti-LIS1 antibody to detect LIS protein (the left-side figure in FIG. 2). The intensity of the detected band was analyzed (after correction with the intensity of the GAPDH band), and the expression ratio of LIS protein was determined (right-side figure in FIG. 2). […]
After the incubation, the procedures were performed in the same manner as described above in the “Analysis of Expression Amount of LIS1 Protein in Dorsal Root Ganglion Neurons” section to detect LIS protein by western blotting (the left-side figure in FIG. 5). Further, the intensity of the detected band was analyzed to determine the expression ratio of the LIS protein (the right-side figure in FIG. 5).

The subject of experiment [3] is sciatic nerve injury model mice. The experiment can be described thus: Histological analysis of sciatic nerves in sciatic nerve injury models. It is filed as in vivo, mouse. Here is the method: (§1) To investigate the effect of SNJ1945 on promoting peripheral nerve regeneration, mouse sciatic nerve injury models were prepared and histologically analyzed. The models were used as sciatic nerve injury model mice produced according to the method of Wall et al. (Wall, 1979). More specifically, model mice were produced in the following manner. Four-week-old female mice were subjected to general anesthesia with sevoflurane inhalation anesthesia (Mylan N.V.) and laid down in a prone position. The skin on the femur was incised. The muscle layer was peeled off carefully and quickly so as not to injure the sciatic nerve. The nerve was severed (completely injured) at mid-thigh at one point with an interval of 40 mm from the periphery. The muscle layer and the skin were then sutured and disinfected. The mice were used as complete nerve injury model mice. Administration of SNJ1945 was performed by mixing SNJ-1945 into a diet (CE-2, CLEA Japan, Inc.) and orally administering the mixture continuously to each mouse in an amount of 200 μg of SNJ1945/per gram of body weight/day. Mice that were subjected to the same complete nerve injury and maintained on a diet not containing SNJ1945 (CE-2, CLEA Japan, Inc.) were used as a control group.
For histological analysis, after the mice were sacrificed by cervical dislocation, sciatic nerves were removed and fixed in 4% paraformaldehyde for 24 hours. After the paraformaldehyde was replaced with PBS, the sciatic nerves were embedded in paraffin. The tissue block was cut into 5-μm-thick sections and each tissue section was adhered onto a glass slide. For hematoxylin and eosin staining, each tissue section was 1) deparaffinized, 2) washed with water, 3) stained with Mayer's or Carrazzi's hematoxylin, 4) lightly washed with running water, 5) allowed to develop color, 6) stained with an eosin solution for 1 minute, and 7) subjected to dehydration, clearing, and embedding; and morphologically observed under an optical microscope.
Samples for observation under an electron microscope were prepared in the following manner. Sciatic nerves were removed in the same manner as above and then placed in a fixative (2.5% glutaraldehyde). Ten minutes after being placed in the fixative, the sciatic nerves were removed and placed in several drops of the fixative that had been dropped on a thick plastic sheet beforehand, and cut into thin sections. Post-fixation was performed using an aqueous osmium tetroxide solution. Next, free water contained in the tissue was replaced with ethyl alcohol. In order to make ultrathin sections, the tissue was embedded in an epoxy resin, and tissue sections were produced with an ultramicrotome. Observation was performed using a transmission electron microscope (Hitachi Ltd.: H-7500).

Experiment [4] has the same test system. The experiment can be described thus: Functional analysis of sciatic nerves in sciatic nerve injury models. Format: in vivo, mouse. Here is the method: as §1, with “Mice that were subjected to the same complete nerve injury and maintained on a diet not containing SNJ1945 (CE-2, CLEA Japan, Inc.) were used as a control group.” left out
To further investigate the peripheral nerve regeneration promotion effect of SNJ1945, motor function of sciatic nerve injury model mice was evaluated based on the sciatic function index (SFI) and print length factor (PLI) using Footprint (Bain et al., 1989).

The test system of experiment [5] is LIS1 protein. Particulars: disclosed in WO2012/074120; based on calpain inhibitory activity; cited from earlier work.
Where [6] appears, read: complete nerve injury model, oral in diet 200 μg/g body weight/day, 1 week after administration, vs control group.

Turning to `COCCOCCOC(=O)N[C@@H](CC(C)C)C(=O)N[C@@H](Cc1ccccc1)C(=O)C(=O)NC1CC1` [Compound 17, ((1S)-1-((((1S)-1-Benzyl-2,3-dioxo-3-(cyclopropylamino)propyl)amino)carbonyl)-3-methylbutyl)carbamic acid 5-methoxy-3-oxapentyl ester], the entries for the “axon elongation (axon length)” value in experiment [1] (neurons from 3-day-old mice) and in experiment [1] (neurons from 15-day-old mice) were “axon elongation promotion effect” and “significant axon elongation promotion effect”, respectively. In addition, the entries for the “expression amount of LIS1 protein” value in the experiment with LIS1 protein [2] (neurons from 3-day-old mice) and with LIS1 protein [2] (neurons from 15-day-old mice) were “not able to significantly increase the expression amount” and “significantly increased the expression amount of LIS1”, respectively. Moreover, the “myelin regeneration in sciatic nerves after nerve cell degeneration” value in experiment [3] (administration started 1 week after severance, analyzed 1 month after severance) is listed as “significantly high myelin regeneration”. Also, the “recovery of myelin (electron microscope)” value in experiment [3] (setting [6]) is on record as “recovery of myelin”. Further, in experiment [3] (setting [6]), the “recovery of sciatic nerves (hematoxylin and eosin staining)” value is reported as “significant recovery of sciatic nerves”. Besides, the “number of myelin whose recovery was recognized (regeneration of myelin in sciatic nerves)” value in experiment [3] (complete nerve injury model, oral in diet, FIG. 24, vs control group) is “significantly high regeneration of myelin”. The “condition of the paw” value in experiment [4] (complete injury model, one month after administering, vs control group mouse) is reported as “recovered to the extent that the mouse could grasp the cage”. In addition, the “recovery of complete nerve injury models (motor function)” value in experiment [4] (continuous administration) is “further promoted recovery”. The “effect of amplifying LIS1 protein” value with LIS1 protein [5] is listed as “has an effect of amplifying LIS1 protein”.
